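A five-concentration, 48-hour dose response in 96-well plates underlies each endpoint, interpolated linearly between surrounding concentrations. The concentration for 50% growth inhibition is given as GI50. TGI: total growth inhibition.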
Columns and labels:
Test in all cases: NCI-60 cell line screen, 48 h
BT-549 breast = tested on: BT-549 breast
K-562 leukemia = tested on: K-562 leukemia
786-0 renal = tested on: 786-0 renal
CCRF-CEM leukemia = tested on: CCRF-CEM leukemia
SK-MEL-5 melanoma = tested on: SK-MEL-5 melanoma
NCI-H226 lung = tested on: NCI-H226 lung
HS 578T breast = tested on: HS 578T breast
HL-60(TB) leukemia = tested on: HL-60(TB) leukemia
SF-539 CNS = tested on: SF-539 CNS
MDA-MB-231 breast = tested on: MDA-MB-231 breast
T-47D breast = tested on: T-47D breast
HCC-2998 colon = tested on: HCC-2998 colon
SW-620 colon = tested on: SW-620 colon
SNB-19 CNS = tested on: SNB-19 CNS
OVCAR-3 ovarian = tested on: OVCAR-3 ovarian
MOLT-4 leukemia = tested on: MOLT-4 leukemia
SK-OV-3 ovarian = tested on: SK-OV-3 ovarian
MALME-3M melanoma = tested on: MALME-3M melanoma
HT29 colon = tested on: HT29 colon
M14 melanoma = tested on: M14 melanoma
HOP-92 NSCLC = tested on: HOP-92 NSCLC
A549 NSCLC = tested on: A549 NSCLC
SF-268 CNS = tested on: SF-268 CNS
NCI-H522 lung = tested on: NCI-H522 lung
SK-MEL-2 melanoma = tested on: SK-MEL-2 melanoma
MDA-MB-435 = tested on: MDA-MB-435
IGROV1 ovarian = tested on: IGROV1 ovarian
RPMI-8226 leukemia = tested on: RPMI-8226 leukemia
COLO 205 colon = tested on: COLO 205 colon
EKVX NSCLC = tested on: EKVX NSCLC
NCI-H460 lung = tested on: NCI-H460 lung
A498 renal = tested on: A498 renal
NCI/ADR-RES ovarian = tested on: NCI/ADR-RES ovarian
UACC-257 melanoma = tested on: UACC-257 melanoma
DU-145 prostate = tested on: DU-145 prostate
HOP-62 NSCLC = tested on: HOP-62 NSCLC
RXF 393 renal = tested on: RXF 393 renal
HCT-15 colon = tested on: HCT-15 colon
SK-MEL-28 melanoma = tested on: SK-MEL-28 melanoma
SR leukemia = tested on: SR leukemia
SN12C renal = tested on: SN12C renal
HCT-116 colon = tested on: HCT-116 colon
LOX IMVI melanoma = tested on: LOX IMVI melanoma
SF-295 CNS = tested on: SF-295 CNS
OVCAR-8 ovarian = tested on: OVCAR-8 ovarian
NCI-H23 lung = tested on: NCI-H23 lung
U251 CNS = tested on: U251 CNS
SNB-75 CNS = tested on: SNB-75 CNS
UO-31 renal = tested on: UO-31 renal
UACC-62 melanoma = tested on: UACC-62 melanoma
KM12 colon = tested on: KM12 colon
CAKI-1 renal = tested on: CAKI-1 renal
OVCAR-4 ovarian = tested on: OVCAR-4 ovarian
ACHN renal = tested on: ACHN renal
PC-3 prostate = tested on: PC-3 prostate
OVCAR-5 ovarian = tested on: OVCAR-5 ovarian

Cc1ccc(C(CN(C)C)C(=O)c2ccccc2)cc1 (configuration not stated)
GI50 (BT-549 breast): 1.7 µM
TGI (BT-549 breast): 3.75 µM
GI50 (K-562 leukemia): 1.37 µM
TGI (K-562 leukemia): 7.82 µM
GI50 (786-0 renal): 2.12 µM
TGI (786-0 renal): 4 µM
GI50 (CCRF-CEM leukemia): 0.442 µM
TGI (CCRF-CEM leukemia): 10.6 µM
GI50 (SK-MEL-5 melanoma): 3.67 µM
TGI (SK-MEL-5 melanoma): 13.6 µM
GI50 (NCI-H226 lung): 2.97 µM
TGI (NCI-H226 lung): 20.9 µM
GI50 (HS 578T breast): 4.7 µM
TGI (HS 578T breast): 33.6 µM
GI50 (HL-60(TB) leukemia): 2.19 µM
TGI (HL-60(TB) leukemia): 5.24 µM
GI50 (SF-539 CNS): 3.09 µM
TGI (SF-539 CNS): 10.7 µM
GI50 (MDA-MB-231 breast): 2.64 µM
TGI (MDA-MB-231 breast): 7.07 µM
GI50 (T-47D breast): 2.35 µM
TGI (T-47D breast): 12.7 µM
GI50 (HCC-2998 colon): 6.62 µM
TGI (HCC-2998 colon): 20.2 µM
GI50 (SW-620 colon): 0.894 µM
TGI (SW-620 colon): 2.71 µM
GI50 (SNB-19 CNS): 10.4 µM
TGI (SNB-19 CNS): 24.3 µM
GI50 (OVCAR-3 ovarian): 1.86 µM
TGI (OVCAR-3 ovarian): 3.55 µM
GI50 (MOLT-4 leukemia): 1.68 µM
TGI (MOLT-4 leukemia): 5.75 µM
GI50 (SK-OV-3 ovarian): 14.7 µM
TGI (SK-OV-3 ovarian): 31.3 µM
GI50 (MALME-3M melanoma): 2.74 µM
TGI (MALME-3M melanoma): 8.89 µM
GI50 (HT29 colon): 3.26 µM
TGI (HT29 colon): 12.5 µM
GI50 (M14 melanoma): 1.91 µM
TGI (M14 melanoma): 4.35 µM
GI50 (HOP-92 NSCLC): 2.07 µM
TGI (HOP-92 NSCLC): 5.38 µM
GI50 (A549 NSCLC): 16.7 µM
TGI (A549 NSCLC): 38 µM
GI50 (SF-268 CNS): 3.13 µM
TGI (SF-268 CNS): 13 µM
GI50 (NCI-H522 lung): 1.8 µM
TGI (NCI-H522 lung): 3.52 µM
GI50 (SK-MEL-2 melanoma): 4.45 µM
TGI (SK-MEL-2 melanoma): 15.8 µM
GI50 (MDA-MB-435): 2.45 µM
TGI (MDA-MB-435): 8.92 µM
GI50 (IGROV1 ovarian): 3.62 µM
TGI (IGROV1 ovarian): 11.5 µM
GI50 (RPMI-8226 leukemia): 1.12 µM
TGI (RPMI-8226 leukemia): 4.28 µM
GI50 (COLO 205 colon): 2.2 µM
TGI (COLO 205 colon): 4.91 µM
GI50 (EKVX NSCLC): 4.63 µM
TGI (EKVX NSCLC): 23.1 µM
GI50 (NCI-H460 lung): 7.38 µM
TGI (NCI-H460 lung): 21.9 µM
GI50 (A498 renal): 13.5 µM
TGI (A498 renal): 28.6 µM
GI50 (NCI/ADR-RES ovarian): 2.89 µM
TGI (NCI/ADR-RES ovarian): 12.6 µM
GI50 (UACC-257 melanoma): 5.74 µM
TGI (UACC-257 melanoma): 19.2 µM
GI50 (DU-145 prostate): 1.93 µM
TGI (DU-145 prostate): 5.12 µM
GI50 (HOP-62 NSCLC): 12.2 µM
TGI (HOP-62 NSCLC): 27.5 µM
GI50 (RXF 393 renal): 2.56 µM
TGI (RXF 393 renal): 7.52 µM
GI50 (HCT-15 colon): 1.7 µM
TGI (HCT-15 colon): 4.21 µM
GI50 (SK-MEL-28 melanoma): 2.83 µM
TGI (SK-MEL-28 melanoma): 8.37 µM
GI50 (SR leukemia): 1.03 µM
TGI (SR leukemia): 6.47 µM
GI50 (SN12C renal): 3.59 µM
TGI (SN12C renal): 11.5 µM
GI50 (HCT-116 colon): 0.514 µM
TGI (HCT-116 colon): 1.83 µM
GI50 (LOX IMVI melanoma): 1.01 µM
TGI (LOX IMVI melanoma): 2.27 µM
GI50 (SF-295 CNS): 5.09 µM
TGI (SF-295 CNS): 18.2 µM
GI50 (OVCAR-8 ovarian): 3.13 µM
TGI (OVCAR-8 ovarian): 11.3 µM
GI50 (NCI-H23 lung): 10.5 µM
TGI (NCI-H23 lung): 26.7 µM
GI50 (U251 CNS): 3.4 µM
TGI (U251 CNS): 12.8 µM
GI50 (SNB-75 CNS): 2.58 µM
TGI (SNB-75 CNS): 14.8 µM
GI50 (UO-31 renal): 1.86 µM
TGI (UO-31 renal): 3.86 µM
GI50 (UACC-62 melanoma): 1.85 µM
TGI (UACC-62 melanoma): 4.33 µM
GI50 (KM12 colon): 4 µM
TGI (KM12 colon): 14.7 µM
GI50 (CAKI-1 renal): 2.64 µM
TGI (CAKI-1 renal): 7.97 µM
GI50 (OVCAR-4 ovarian): 2.76 µM
TGI (OVCAR-4 ovarian): 13 µM
GI50 (ACHN renal): 1.63 µM
TGI (ACHN renal): 3.18 µM
GI50 (PC-3 prostate): 1.84 µM
TGI (PC-3 prostate): 4.36 µM
GI50 (OVCAR-5 ovarian): 4.23 µM
TGI (OVCAR-5 ovarian): 15.8 µM

— PubChem BioAssay (NCI)
